Source: patent US20210244028A1, “TREATMENT FOR REMOVING ECTOPARASITES FROM FISH” (priority 2018, published 2021)
Where “and” joins values, the source holds several entries; their conditions need not be identical. Equal values may be shown once. Read-outs that look alike come from different tables or passages of the source.

What was measured:
[1] = test system: Lepeophtheirus salmonis; conditions: for percentage of sea lice that dropped from treated fish at the end of the treatment period / knockdown times (mean±SEM) / percentage of lice for which their knockdown time equalled that of the exposure time: 20 ppm (nitenpyram 19 ppm); for percentage of sea lice that dropped from treated fish at the end of the treatment period: culled fish; for knockdown times (mean±SEM) / percentage of lice for which their knockdown time equalled that of the exposure time: * only one louse knocked down
Description: The fish were acclimatised until normal feeding behaviour resumed, up to a maximum of 10 days, prior to challenge. The fish were housed in 750 litre tanks at a stocking density of no greater than 35 kg/m3. Tanks were provided with a continuous supply of seawater at a flow rate greater than 5 L/min at a temperature of 4.8-10.4° C. The photoperiod was set at 12 hours light: 12 hours dark.
The fish were challenged in a static bath with copepodid instar of Lepeophtheirus salmonis with the appearance of egg strings freshly removed from adult female lice at a target titre of 1,250-1,700 copepodids per tank
Egg strings were harvested from gravid sea lice and incubated in upwelling chambers until nauplii eclosion. Nauplii were allowed to moult through to the copepodid instar (5 days at approx. 10° C.) and then the tank water was filtered through a 100 μm mesh before re-suspending the copepodids in 225 mL of sea water. A 25 mL sample was removed which was then split into 1-2 mL samples in a 24-well plate and the nauplii/copepodids were counted under a stereo microscope. When abundance was sufficient and a minimum of 80% were copepodids the fish were challenged for 8 hours under static flow in the dark.
Fish were randomly selected from tanks, lightly sedated in a 90 ppm MS222 solution sufficient only to induce loss of equilibrium before being sacrificed by a non-recoverable blow to the head. Between 4 and 33 fish were required per treatment.
Culled fish were then suspended in treatment tanks. Fish were suspended in the tank horizontally from cable ties (one through the opercular cavity, one around the peduncle) and wire attached to a wooden rod). One 20 L tank of test item at 20 ppm was used per day. Lice on culled fish were exposed for either 5, 10, 15, 30 or 60 minutes (negative control was only exposed for 60 minutes as this would cover the longest exposure period to be tested). The order within treatment was randomised.
(§1) Lice were monitored continuously for the duration of the exposure and behavioural observations noted, including detachment of lice from fish. At the end of exposure lice were either removed from the tank or fish, placed into small vented plastic screw-top containers (125 mL, LDPE, 25 mm hole drilled into lid and secured with 200 μm mesh), and transferred to a clean tank supplied with filtered sea water and held there for 24 h. Lice which had detached from fish were kept separate from those that had not detached.
On the day of exposure, 200 mg of the test ectoparasite treatments was added to 1 L of sea water. Only 192 mg of nitenpyram was supplied. The solution was mechanically stirred for 30 minutes, using a stirring plate and magnetic flea (VWR), at a speed sufficient to generate a strong vortex to ensure a homogenous solution. This was then transferred into an approx. 25 L clear plastic tank containing 9 L of sea water. The solution was then mixed for a further 10 minutes using a small pump (Fluval Sea CP1), which was then removed from the tank prior to addition of fish.
Each treatment requiring 1 to 4 fish per individual treatment per replicate and 2 to 13 fish per group per replicate. Treatments with negative control (sea water), dinotefuran, clothianidin and thiamethoxam were replicated twice, and for imidacloprid three times. There was only one replicate per treatment for nitenpyram. The mean number of lice used per individual treatment was 5.5 to 10, with the mean per group being 6.2-7.2 lice.

[2] = test system: Lepeophtheirus salmonis; conditions: for percentage responsiveness of lice recovered from tank at treatment end at 24 hours post-treatment: lice knocked off fish
Description: as §1
24 h post-treatment lice were removed from the screw-top containers to check if they were alive and, if so, if they were responsive. Categories were defined as follows: alive—movement detected; responsive—alive and actively avoids stimulation in a coordinated manner; dead—no movement detected.
Lice defined as responsive could potentially re-attach to a fish. After assessment lice were transferred to 70% alcohol in case determination of instar and sex was required.

[3] = test system: azamethiphos- and deltamethrin-resistant sea lice; assay: In vitro bath exposure of isolated sea lice (Example 6); conditions: 30 minutes exposure, registered approx. 20 h after end of exposure
Description: A trial was performed to ensure there was no cross-resistance between azamethiphos- and deltamethrin-resistant sea lice and neonicotinoids. Both pre-adult and adult stages (mobile stages) of both sexes were used, and they were equally distributed among groups. The sea lice were exposed to imidacloprid for 60 minutes, azamethiphos for 60 minutes and deltamethrin for 30 minutes in one litre baths at a range of concentrations (Tables 6, 7 and 8). The sea lice were transferred to clean aerated seawater after treatment. The temperature of the seawater during the experiment was 12° C., but during exposure the temperature raised to approx. 14° C. in regimes exposed for 60 min. (imidacloprid and azamethiphos) and to 13° C. for the regime exposed in 30 minutes (deltamethrin).
The numbers of live and immobilised (including killed) lice in each regime were registered approximately 20 h after end of exposure. Each louse was individually investigated.

[4] = test system: Salmon lice; assay: Bath treatment of lice-infected Atlantic salmon, percent lice removed (Example 7); type: in vivo; conditions: 0.2 μl/l, 30 minutes, duplicate, 3 fish per test
Description: To determine the concentration- and time-dependence of imidacloprid treatment in vivo, Atlantic salmon (average of 320.9 g) were challenged with imidacloprid in seawater ([…] salinity) at 12° C. The water level in the tank was lowered and aeration was employed during administration of the active. The salmon louse copepodid culture was counted and adjusted to obtain a target level of around 40 copepodids per fish in the challenge tank at each challenge time point.
Salmon lice on the fish were counted using standard methods. Only lice on the fish's outer surface, not including gills and oral/buccal cavities, were investigated.
Numbers of dissociated lice in tank water or attached to the tank walls were recorded. Lice in the tank water were collected and assessed for ability to attach by suction to a smooth plastic surface immediately after treatment and again after 30-60 minutes (to assess possible revival). […]
To terminate the treatment, the inner compartment with treated fish was lifted to the surface and drained, then fish were transferred directly and without water to a second basin with a lethal overdose of anaesthetic and left until dead. All lice remaining on these fish and lice that fell off in the anaesthetic bath were recorded. […]

[5] = exposure 5 min, 20 ppm (nitenpyram 19 ppm), 24 h post-treatment
[6] = exposure 10 min, 20 ppm (nitenpyram 19 ppm), 24 h post-treatment
[7] = exposure 15 min, 20 ppm (nitenpyram 19 ppm), 24 h post-treatment
[8] = exposure 30 min, 20 ppm (nitenpyram 19 ppm), 24 h post-treatment
[9] = exposure 60 min, 20 ppm (nitenpyram 19 ppm), 24 h post-treatment
[10] = exposure 15 min, 20 ppm (nitenpyram 19 ppm)
[11] = exposure 60 min, 20 ppm (nitenpyram 19 ppm)
[12] = exposure 30 min, 20 ppm (nitenpyram 19 ppm)

Row | SMILES | percentage of sea lice that dropped from treated fish at the end of the treatment period ([1]; exposure 5 min) | percentage of sea lice that dropped from treated fish at the end of the treatment period ([1]; exposure 10 min) | percentage of sea lice that dropped from treated fish at the end of the treatment period ([1]; exposure 15 min) | percentage of sea lice that dropped from treated fish at the end of the treatment period ([1]; exposure 30 min) | percentage of sea lice that dropped from treated fish at the end of the treatment period ([1]; exposure 60 min) | percentage responsiveness for sea lice recovered from fish at the end of the treatment period [2, 5] | percentage responsiveness for sea lice recovered from fish at the end of the treatment period [2, 6] | percentage responsiveness for sea lice recovered from fish at the end of the treatment period [2, 7] | percentage responsiveness for sea lice recovered from fish at the end of the treatment period [2, 8] | percentage responsiveness for sea lice recovered from fish at the end of the treatment period [2, 9] | knockdown times (mean±SEM) ([1]; exposure 15 min) | percentage of lice for which their knockdown time equalled that of the exposure time ([1]; exposure 15 min) | knockdown times (mean±SEM) ([1]; exposure 60 min) | percentage of lice for which their knockdown time equalled that of the exposure time ([1]; exposure 60 min) | percentage responsiveness of lice recovered from tank at treatment end at 24 hours post-treatment [2, 10] | percentage responsiveness of lice recovered from tank at treatment end at 24 hours post-treatment [2, 11] | knockdown times (mean±SEM) ([1]; exposure 30 min) | percentage of lice for which their knockdown time equalled that of the exposure time ([1]; exposure 30 min) | percentage responsiveness of lice recovered from tank at treatment end at 24 hours post-treatment [2, 12] | further results
1 | CN1COCN(Cc2cnc(Cl)s2)/C1=N\[N+](=O)[O-] [thiamethoxam] | 0% | 0% | 0% | 0% | 0% | 100% | 100% | 100% | 100% | 92% |  |  |  |  |  |  |  |  |  | Knockdown effect ([1]; 20 ppm, exposure 5 to 60 minutes): No knockdown
2 | CCN(Cc1ccc(Cl)nc1)/C(=C/[N+](=O)[O-])NC [nitenpyram] | 0% | 0% | 16.7% | 0% | 14.3% | 100% | 100% | 100% | 100% | 100% | 900* seconds | 100* % | 3600* seconds | 100* % | 0% | 0% |  |  |  | Responsiveness of lice still on fish at end of exposure ([2]; all exposure durations (5-60 min), 19 ppm): unaffected at all exposure durations
3 | CC1(C)[C@H](C(=O)O[C@H](C#N)c2cccc(Oc3ccccc3)c2)[C@@H]1C=C(Br)Br [deltamethrin] |  |  |  |  |  |  |  |  |  |  |  |  |  |  |  |  |  |  |  | % effect ([3]; 5 ppm): 0%; Immobilised ([3]; 5 ppm): 0; Live ([3]; 5 ppm): 10; Live ([3]; 10 ppm): 9 and 10; % effect ([3]; 15 ppm): 20% and 10%; Immobilised ([3]; 15 ppm): 2 and 1; Live ([3]; 15 ppm): 8 and 9; % effect ([3]; 20 ppm): 20% and 10%; Immobilised ([3]; 20 ppm): 2 and 1; Live ([3]; 20 ppm): 8 and 9; Immobilised ([3]; 30 ppm): 1 and 2; Live ([3]; 30 ppm): 10 and 8; % Removal [4]: 0^37%
4 | CN/C(=N/CC1CCOC1)N[N+](=O)[O-] (stereo not drawn) [dinotefuran] | 0% | 0% | 0% | 7.7% | 53.3% |  |  |  |  |  | 900* seconds | 100* % | 3109 ± 224 s | 25% | 100% | 71% | 1800* seconds | 100* % | 0% | percentage responsiveness for sea lice recovered from fish at the end of the treatment period [2]: 88% and 73% and 100% and 69% and 83%
5 | CN/C(=N\[N+](=O)[O-])NCc1cnc(Cl)s1 [clothianidin] | 0% | 0% | 9.1% | 69.2% | 54.5% | 100% | 93% | 90% | 75% | 100% | 900* seconds | 100* % | 2289 ± 424 s | 33.3% | 0% | 33% | 1706 ± 71 s | 77.8% | 44% | 
